Columns and labels:
Adenosine receptor A1 = target: T1, Adenosine receptor A1 (Homo sapiens, UniProt P30542)
T1 sequence (P30542 whole entry): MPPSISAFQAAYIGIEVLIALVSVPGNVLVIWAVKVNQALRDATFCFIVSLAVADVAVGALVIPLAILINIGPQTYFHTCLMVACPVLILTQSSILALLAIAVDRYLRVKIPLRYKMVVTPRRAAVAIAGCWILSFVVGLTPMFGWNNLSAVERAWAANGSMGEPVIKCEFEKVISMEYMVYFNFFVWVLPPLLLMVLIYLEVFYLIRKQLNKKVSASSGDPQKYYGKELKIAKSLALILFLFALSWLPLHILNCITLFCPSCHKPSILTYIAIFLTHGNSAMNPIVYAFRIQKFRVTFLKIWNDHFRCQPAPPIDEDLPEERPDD

Adenosine receptor A3 = target: T2, Adenosine receptor A3 (Homo sapiens, UniProt P0DMS8)
T2 sequence (P0DMS8 whole entry): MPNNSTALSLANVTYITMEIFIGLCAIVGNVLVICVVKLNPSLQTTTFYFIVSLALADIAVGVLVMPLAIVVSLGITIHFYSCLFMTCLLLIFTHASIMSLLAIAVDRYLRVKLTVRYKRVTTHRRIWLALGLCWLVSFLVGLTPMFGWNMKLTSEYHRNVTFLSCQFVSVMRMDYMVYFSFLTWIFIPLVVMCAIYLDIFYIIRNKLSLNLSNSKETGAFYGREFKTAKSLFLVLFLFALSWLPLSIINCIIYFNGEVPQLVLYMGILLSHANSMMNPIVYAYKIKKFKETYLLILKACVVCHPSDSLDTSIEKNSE

[1] = target: T3, Alpha-2A adrenergic receptor (Homo sapiens, UniProt P08913); type: functional, cell-based
T3 sequence (P08913 whole entry): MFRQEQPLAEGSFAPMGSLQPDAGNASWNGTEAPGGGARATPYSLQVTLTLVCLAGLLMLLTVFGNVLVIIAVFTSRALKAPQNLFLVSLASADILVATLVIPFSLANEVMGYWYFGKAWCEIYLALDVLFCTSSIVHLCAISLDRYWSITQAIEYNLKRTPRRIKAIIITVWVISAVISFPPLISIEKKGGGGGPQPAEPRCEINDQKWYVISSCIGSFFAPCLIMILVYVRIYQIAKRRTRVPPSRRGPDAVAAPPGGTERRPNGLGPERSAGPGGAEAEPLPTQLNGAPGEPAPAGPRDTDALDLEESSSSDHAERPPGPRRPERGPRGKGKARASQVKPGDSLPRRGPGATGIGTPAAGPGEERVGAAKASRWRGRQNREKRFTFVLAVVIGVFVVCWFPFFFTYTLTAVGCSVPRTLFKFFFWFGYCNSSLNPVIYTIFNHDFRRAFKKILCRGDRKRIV

[2] = target: Beta-1 adrenergic receptor (Homo sapiens, UniProt P08588); type: functional
Beta-1 adrenergic receptor, sequence (P08588 whole entry): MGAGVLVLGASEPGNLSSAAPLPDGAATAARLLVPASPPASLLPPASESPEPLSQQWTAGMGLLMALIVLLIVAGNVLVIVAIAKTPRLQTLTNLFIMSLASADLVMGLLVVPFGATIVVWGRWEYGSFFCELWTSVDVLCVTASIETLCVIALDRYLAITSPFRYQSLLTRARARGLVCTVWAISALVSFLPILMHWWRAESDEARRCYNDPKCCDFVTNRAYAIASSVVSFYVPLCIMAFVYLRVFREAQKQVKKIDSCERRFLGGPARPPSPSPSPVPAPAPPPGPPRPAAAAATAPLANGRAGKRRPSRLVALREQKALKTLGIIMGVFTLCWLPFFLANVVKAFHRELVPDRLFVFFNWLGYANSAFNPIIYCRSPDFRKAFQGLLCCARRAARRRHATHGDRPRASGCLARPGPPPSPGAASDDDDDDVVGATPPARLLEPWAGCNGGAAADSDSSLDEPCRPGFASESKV

[3] = target: T4, Type-1 angiotensin II receptor (Homo sapiens, UniProt P30556)
T4 sequence (P30556 whole entry): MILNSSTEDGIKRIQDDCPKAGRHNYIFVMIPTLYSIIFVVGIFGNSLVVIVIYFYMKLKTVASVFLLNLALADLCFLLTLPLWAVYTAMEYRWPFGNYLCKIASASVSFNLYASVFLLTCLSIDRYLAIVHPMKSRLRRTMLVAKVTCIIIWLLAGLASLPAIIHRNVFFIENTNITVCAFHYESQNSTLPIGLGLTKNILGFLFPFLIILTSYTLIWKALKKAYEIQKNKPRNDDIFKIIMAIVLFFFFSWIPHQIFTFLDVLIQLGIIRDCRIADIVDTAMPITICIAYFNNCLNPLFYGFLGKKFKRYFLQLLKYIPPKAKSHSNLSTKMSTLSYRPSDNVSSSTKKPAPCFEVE

Vasopressin V2 receptor = Vasopressin V2 receptor (Homo sapiens, UniProt P30518)
Vasopressin V2 receptor, sequence (P30518 whole entry): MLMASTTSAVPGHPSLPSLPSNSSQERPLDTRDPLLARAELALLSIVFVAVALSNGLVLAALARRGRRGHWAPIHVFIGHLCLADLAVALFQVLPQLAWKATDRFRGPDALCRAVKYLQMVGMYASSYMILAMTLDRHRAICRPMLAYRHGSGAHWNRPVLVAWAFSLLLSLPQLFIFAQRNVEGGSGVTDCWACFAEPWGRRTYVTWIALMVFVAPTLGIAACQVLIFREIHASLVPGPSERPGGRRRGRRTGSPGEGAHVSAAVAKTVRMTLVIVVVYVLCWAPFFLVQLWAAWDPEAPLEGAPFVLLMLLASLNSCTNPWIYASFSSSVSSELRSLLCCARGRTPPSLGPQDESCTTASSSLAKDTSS

[4] = target: T5, Muscarinic acetylcholine receptor M2 (Homo sapiens, UniProt P08172); type: functional, cell-based
T5 sequence (P08172 whole entry): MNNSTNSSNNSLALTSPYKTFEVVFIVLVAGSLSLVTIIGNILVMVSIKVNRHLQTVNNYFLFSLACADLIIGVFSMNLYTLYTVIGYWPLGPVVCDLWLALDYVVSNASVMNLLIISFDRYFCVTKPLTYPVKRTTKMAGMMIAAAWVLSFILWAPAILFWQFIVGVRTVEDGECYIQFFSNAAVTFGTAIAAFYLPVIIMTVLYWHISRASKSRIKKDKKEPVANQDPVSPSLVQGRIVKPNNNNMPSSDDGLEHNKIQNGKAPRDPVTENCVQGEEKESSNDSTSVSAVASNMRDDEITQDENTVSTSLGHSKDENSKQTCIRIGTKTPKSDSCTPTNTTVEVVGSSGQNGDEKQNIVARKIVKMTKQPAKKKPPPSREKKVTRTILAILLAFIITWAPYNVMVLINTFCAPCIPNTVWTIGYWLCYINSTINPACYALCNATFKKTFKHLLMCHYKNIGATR

[5] = target: Neuronal acetylcholine receptor subunit alpha-4 (Homo sapiens, UniProt P43681)
Neuronal acetylcholine receptor subunit alpha-4, sequence (P43681 whole entry): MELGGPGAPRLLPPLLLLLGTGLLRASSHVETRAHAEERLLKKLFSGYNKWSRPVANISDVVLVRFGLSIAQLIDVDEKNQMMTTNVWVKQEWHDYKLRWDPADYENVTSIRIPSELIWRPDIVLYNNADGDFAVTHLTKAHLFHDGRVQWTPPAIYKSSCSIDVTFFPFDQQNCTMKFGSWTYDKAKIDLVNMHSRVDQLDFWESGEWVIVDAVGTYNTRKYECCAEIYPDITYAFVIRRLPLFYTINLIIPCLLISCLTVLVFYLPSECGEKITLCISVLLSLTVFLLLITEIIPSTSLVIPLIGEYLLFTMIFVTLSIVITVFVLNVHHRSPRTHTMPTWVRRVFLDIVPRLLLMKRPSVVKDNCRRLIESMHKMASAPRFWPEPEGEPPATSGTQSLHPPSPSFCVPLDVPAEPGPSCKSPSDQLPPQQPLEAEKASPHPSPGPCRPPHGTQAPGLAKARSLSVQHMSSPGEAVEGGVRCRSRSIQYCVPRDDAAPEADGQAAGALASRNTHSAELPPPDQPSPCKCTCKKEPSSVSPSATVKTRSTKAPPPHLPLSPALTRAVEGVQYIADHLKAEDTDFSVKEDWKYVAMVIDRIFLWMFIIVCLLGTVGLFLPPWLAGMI

[6] = target: Gamma-aminobutyric acid receptor subunit alpha-1 (Rattus norvegicus, UniProt P62813); type: functional
Gamma-aminobutyric acid receptor subunit alpha-1, sequence (P62813 whole entry): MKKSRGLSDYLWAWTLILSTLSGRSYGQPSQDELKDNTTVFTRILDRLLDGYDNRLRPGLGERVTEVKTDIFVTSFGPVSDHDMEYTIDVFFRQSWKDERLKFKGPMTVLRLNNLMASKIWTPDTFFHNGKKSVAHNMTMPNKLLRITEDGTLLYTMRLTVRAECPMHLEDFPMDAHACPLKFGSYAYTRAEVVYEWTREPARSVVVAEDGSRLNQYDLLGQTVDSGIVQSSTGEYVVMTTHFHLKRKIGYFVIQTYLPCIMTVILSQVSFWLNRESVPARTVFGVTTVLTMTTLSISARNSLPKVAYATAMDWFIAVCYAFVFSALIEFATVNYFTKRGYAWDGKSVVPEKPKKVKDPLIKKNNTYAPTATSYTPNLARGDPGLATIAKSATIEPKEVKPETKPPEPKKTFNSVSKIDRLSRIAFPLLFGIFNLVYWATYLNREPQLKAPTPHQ

[7] = target: Glutamate receptor ionotropic, NMDA 1 (Rattus norvegicus, UniProt P35439)
Histamine H2 receptor = Histamine H2 receptor (Homo sapiens, UniProt P25021); type: functional, cell-based
Histamine H2 receptor, sequence (P25021 whole entry): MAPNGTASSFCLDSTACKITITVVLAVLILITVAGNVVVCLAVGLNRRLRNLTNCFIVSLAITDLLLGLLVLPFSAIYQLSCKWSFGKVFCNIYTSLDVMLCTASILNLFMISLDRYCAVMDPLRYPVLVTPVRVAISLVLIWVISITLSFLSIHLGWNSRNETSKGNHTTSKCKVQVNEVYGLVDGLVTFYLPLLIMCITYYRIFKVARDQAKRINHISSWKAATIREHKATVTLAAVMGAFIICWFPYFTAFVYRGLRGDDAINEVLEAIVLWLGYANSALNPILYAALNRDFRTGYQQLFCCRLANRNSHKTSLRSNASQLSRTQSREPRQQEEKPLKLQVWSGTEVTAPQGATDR

Melanocortin receptor 3 = Melanocortin receptor 3 (Homo sapiens, UniProt P41968)
Melanocortin receptor 3, sequence (P41968 whole entry): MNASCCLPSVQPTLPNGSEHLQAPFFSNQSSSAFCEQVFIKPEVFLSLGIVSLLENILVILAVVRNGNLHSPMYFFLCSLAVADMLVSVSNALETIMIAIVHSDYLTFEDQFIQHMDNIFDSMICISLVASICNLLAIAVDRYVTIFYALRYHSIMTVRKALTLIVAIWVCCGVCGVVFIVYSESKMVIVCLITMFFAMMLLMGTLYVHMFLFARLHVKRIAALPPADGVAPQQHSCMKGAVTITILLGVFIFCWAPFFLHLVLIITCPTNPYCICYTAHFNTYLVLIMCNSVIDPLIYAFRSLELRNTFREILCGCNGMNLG

D(3) dopamine receptor = D(3) dopamine receptor (Homo sapiens, UniProt P35462)
D(3) dopamine receptor, sequence (P35462 whole entry): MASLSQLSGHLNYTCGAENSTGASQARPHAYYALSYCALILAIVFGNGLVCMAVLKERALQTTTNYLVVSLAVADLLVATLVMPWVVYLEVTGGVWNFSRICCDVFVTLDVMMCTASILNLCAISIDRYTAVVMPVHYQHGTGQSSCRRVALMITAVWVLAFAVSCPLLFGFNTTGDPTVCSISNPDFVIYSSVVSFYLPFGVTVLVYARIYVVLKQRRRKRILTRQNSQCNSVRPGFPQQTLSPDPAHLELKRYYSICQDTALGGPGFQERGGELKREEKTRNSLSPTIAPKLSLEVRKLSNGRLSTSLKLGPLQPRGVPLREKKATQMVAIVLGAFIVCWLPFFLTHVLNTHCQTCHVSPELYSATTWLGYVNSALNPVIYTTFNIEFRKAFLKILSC
Further: assay procedure not described here.

Compound	AC50 (Adenosine receptor A1) [µM]	AC50 (Adenosine receptor A3) [µM]	AC50 [1] [µM]	AC50 [2] [µM]	AC50 [3] [µM]	AC50 (Vasopressin V2 receptor) [µM]	AC50 [4] [µM]	AC50 [5] [µM]	AC50 [6] [µM]	AC50 [7] [µM]	AC50 (Histamine H2 receptor) [µM]	AC50 (Melanocortin receptor 3) [µM]	AC50 (D(3) dopamine receptor) [µM]
CCCC(C)(COC(N)=O)COC(N)=O [MEPROBAMATE]	> 10	> 10	> 10	> 10	> 10	> 10	> 10	> 10	> 10	> 10	> 30	> 10	> 30
O=C(c1cc(Cc2n[nH]c(=O)c3ccccc23)ccc1F)N1CCN(C(=O)C2CC2)CC1 [OLAPARIB]	11.9	> 30	> 10	> 30	> 30	> 30	> 10	> 30	> 10	> 10	> 30	> 30	> 30
Fc1ccc([C@@H]2CCNC[C@H]2COc2ccc3c(c2)OCO3)cc1 [PAROXETINE]	> 30	22.5		> 10	> 30	> 30		> 10	> 10	> 10		> 30	> 10
NC(=O)NC(=O)Cc1ccccc1 [PHENACEMIDE]	> 10	> 10	> 10	> 10	> 10	> 10	> 10	> 10	> 10	> 10	> 10	> 10	> 30
CCCN(CCC)S(=O)(=O)c1ccc(C(=O)O)cc1 [PROBENECID]	> 10	> 10	> 10	> 10	> 10	> 10	> 10	> 10	> 10	> 10	> 10	> 10	> 30
O=c1c(O)c(-c2ccc(O)c(O)c2)oc2cc(O)cc(O)c12 [QUERCETIN]		4.2	> 30		> 30		10	> 10			> 30	> 30	> 30
CC1=C(/C=C/C(C)=C/C=C/C(C)=C/CO)C(C)(C)CCC1 [RETINOL]	> 10	> 10	> 10	> 10	> 30	> 10	> 10	> 10	> 10	> 10	> 10	> 10	> 30
Cc1cc(C)nc(NS(=O)(=O)c2ccc(N)cc2)n1 [SULFAMETHAZINE]	> 10	> 10	> 10	> 10	> 10	> 10	> 10	> 10	> 10	> 10	> 30	> 10	> 30
CCCCCCCC(=O)CC[C@@H]1[C@@H](C/C=C\CCCC(=O)OC(C)C)[C@@H](O)C[C@H]1O [UNOPROSTONE ISOPROPYL]		5.6										27	> 30
